Here are results for six compounds from US8053583B2, “Anti-cancer compound and manufacturing method thereof” (National Defense Medical Center, priority 2008, dated 2011).

A word on the viability: it is a read-out of living cells in per cent, often relative to untreated cells. In general, melting point refers to the temperature, or range, at which the solid turns liquid.

The test system of data set [1] is GBM 8401 (human brain glioblastoma) cells. The experiment in a line: MTT colorimetric assay, GBM 8401 cells. As to conditions: 46 hours with drug, then 2 hours MTT, ratio to control group without drug; for Cell viability (%) GBM 8401: conc. 10 μM; for viability at 10 µM: Homo sapiens, read-out: Cell viability (%) GBM 8401, conc. 10 μM.
Text: (§1) MTT (tetrazole) assay used to determine tumor viability is based on measurement of the activity of dehydrogenase to determine cell growth conditions. In live cells, dehydrogenase in active mitochondria converts yellow MTT [3-(4,5-dimethylthiazol-2-yl)-2,5-diphenyltetra zolium bromide] into purple formazan on the reductive cleavage of its tetrazolium ring. The formazan crystal is examined under the microscope. While the mitochondria in dead cells are without active dehydrogenase, no crystal is generated and the color remains yellow. After adding MTT into cell cultures and reacting for 2 hours, the amount of generated formazan precipitate is proportional to total amount of dehydrogenase. Removing the culture medium, add DMSO to dissolve the purple formazan precipitate. Then measure the absorbance of the precipitate by is measured by the spectrophotometer at 560/670 nm so as to learn inhibition effect of drugs acted on normal cells and tumor cells.
(§2) GBM 8401, GBM 8901 (human brain glioblastoma) and SVG p12 (human brain astroglia)cells line are selected to be used in 96 well petri dishes. Each well is filled into the same amount of cells-about 5000 cells per well. After being cultured for 24 hours and cells anchor/attach, the 96 wells are divided into two groups-an experimental group and a control group containing no samples. The samples are diluted into 10 μg/mL by culture medium. Take 200 μL of each sample and add into the experimental group and the control group is added with 200 μL culture medium without samples. After 46 hours of culture, each well is added with 10 μL MTT solution, incubate cells at 37° C., 5% CO2 for 2 hours.
(§3) Then each well is added with 100 μL, dissolving formazan. Shaking for 10 minutes and measure the absorbance at 560/670 nm of the sample by the spectrometer. The data of the experimental group is divided by the data of the control group to get the estimated cell viability.
(§4) Three cell lines-GBM 8401, GBM 8901, SVG p12 (normal) are used in cytotoxicity tests of 1,8-bis-substituted amidoanthraquinone. After reacting with the drug for 46 hours, the cells are reacted with certain amount of MTT solution. After 2 hours, DMSO is used to dissolve formazan and O.D. (optical density) at 560/670 nm is measured. Then calculate the radios of the experimental groups (with drugs) to the control groups (without drugs).
For data set [2], the system named is SVG p12 (human brain astroglia) cells. The data set is described as follows: MTT colorimetric assay, normal SVG p12 cells. As to conditions: conc. 10 μM, 46 hours with drug, then 2 hours MTT, ratio to control group without drug.
Text: as §1, §2, §3, §4
Data set [3] deals with GBM 8901 (human brain glioblastoma) cells. The experiment in a line: MTT colorimetric assay, GBM 8901 cells. The following applies: 46 hours with drug, then 2 hours MTT, ratio to control group without drug; for viability at 10 µM: Homo sapiens, read-out: Cell viability (%) GBM 8901, conc. 10 μM. (In general: Tetrazolium assays rely on reduction of a dye to a coloured formazan, in cell work by metabolically active cells.)
Text: as §1, §2, §3, §4

A short description of data set [4]: MTT colorimetric assay, normal SVG p12 cells. As to conditions: human, SVG p12 cells (normal human brain astroglia), Cell viability (%) SVG p12, conc. 10 μM, 46 hours with drug, then 2 hours MTT, ratio to control group without drug.
Text: as §1, §2, §3, §4

With `COC(=O)[C@H](C)NCC(=O)Nc1cccc2c1C(=O)c1c(NC(=O)CN[C@H](C)C(=O)OC)cccc1C2=O` [Compound 3h, (L)-1,8-Bis[2-(alalinemethyl ester)acetamido]anthraquinone], the “Cell viability (%) GBM 8401” value in data set [1] is 158 ± 3%. The “Cell viability (%) SVG p12” value in data set [2] is 128 ± 34%. Moreover, the viability at 10 µM in data set [3] was 100 ± 24%.
For the compound `COC(=O)[C@H](NCC(=O)Nc1cccc2c1C(=O)c1c(NC(=O)CN[C@@H](C(=O)OC)C(C)C)cccc1C2=O)C(C)C` [Compound 3e, (D)-1,8-Bis[2-(valinemethyl ester)acetamido]anthraquinone], in data set [1], the “Cell viability (%) GBM 8401” value is 153 ± 32%. In addition, the “Cell viability (%) SVG p12” value in data set [2] turned out to be 138 ± 10%. In data set [3] (conc. 10 μM), the “Cell viability (%) GBM 8901” value is on record as 88 ± 10%.
As for `COC(=O)[C@H](CC(C)C)NCC(=O)Nc1cccc2c1C(=O)c1c(NC(=O)CN[C@H](CC(C)C)C(=O)OC)cccc1C2=O` [Compound 3g, 1,8-Bis[2-(leucinemethyl ester)acetamido]anthraquinone], the melting point fell in the range of 238 to 239 °C. In addition, the viability at 10 µM in data set [1] stood at 111 ± 8%. The viability at 46 h, 10 μM in data set [4] came to 153 ± 11%. The viability at 10 µM in data set [3] was found to be 89 ± 4%.
For `CN(C)CCNCCC(=O)Nc1cccc2c1C(=O)c1c(NC(=O)CCNCCN(C)C)cccc1C2=O` [Compound 4e, 1,8-Bis[2-(dimethylethanediamino)propionamido]anthraquinone], the melting point is 100 to 102 °C. In data set [1], the viability at 10 µM came out at 14 ± 2%. In addition, in data set [4], the viability at 46 h, 10 μM stood at 13 ± 3%. The viability at 10 µM in data set [3] amounted to 10 ± 5%.
Taken in the same sequence, the figures for `CCCN(C)CC(=O)Nc1cccc2c1C(=O)c1c(NC(=O)CN(C)CCC)cccc1C2=O` [Compound 3s] were 159 to 160 °C, 103 ± 9%, 132 ± 3% and 107 ± 9%.
The corresponding values for `CNCCC(=O)Nc1cccc2c1C(=O)c1c(NC(=O)CCNC)cccc1C2=O` [Compound 4h] are 233 to 234 °C, 9 ± 2%, 4% and 10 ± 1%.
